The molecules below were run against JH2 domain of human Tyk2 (Homo sapiens (Human), UniProt P29597) (assay: JH2 Biochemical Assay (TR-FRET probe displacement)). Conditions: JH2 domain of human Tyk2, TR-FRET probe displacement.
Assay type: binding
Procedure: The inhibitory potency of compounds of the disclosure against the kinase activity of recombinantly generated JH2 domain of human Tyk2 was evaluated in a plate-based assay using a TR-FRET assay platform. Briefly, 2 nM of recombinant JH2 domain [10×His-tagged TYK2 JH2 domain (amino acid 575-876)] was combined with 2 nM probe ((S)-6-amino-9-(2-carboxy-4-((1-(3-(8-methyl-5-(methylamino)-8H-imidazo[4,5-d]thiazolo[5,4-b]pyridin-2-yl)phenyl)ethyl)carbamoyl)phenyl)-3-iminio-5-sulfo-3H-xanthene-4-sulfonate), 0.1 nM Tb-labeled anti-His antibody, and compounds of disclosure for 60 minutes. Compounds are tested at either 10 μM or 1 μM top concentration, 10 points of 3-fold dilution. The TR-FRET signal inversely correlates to the amount of probe displaced by compounds and signal was calculated by taking the ratio of fluorescence at 520 nm and 495 nm. The data was normalized and the percent activity versus log concentration of compound was fitted with a 4-parameter logistic model to generate IC50 curves.

Chain of JH2 domain of human Tyk2 (P29597 575-876): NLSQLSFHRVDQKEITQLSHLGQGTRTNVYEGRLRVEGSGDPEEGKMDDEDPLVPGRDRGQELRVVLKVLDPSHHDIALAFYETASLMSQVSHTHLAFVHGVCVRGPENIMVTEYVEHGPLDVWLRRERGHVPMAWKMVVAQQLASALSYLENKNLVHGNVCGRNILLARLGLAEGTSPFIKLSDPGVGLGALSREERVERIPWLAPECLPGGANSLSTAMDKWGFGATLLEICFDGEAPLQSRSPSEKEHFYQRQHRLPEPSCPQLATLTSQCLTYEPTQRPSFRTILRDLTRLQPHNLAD

Row | SMILES | IC50 [nM]
1 | COc1nc(C)cc(Nc2cc(NC(C)=O)ncc2OC)n1 [Example 452, N-(5-methoxy-4-((2-methoxy-6-methylpyrimidin-4-yl)amino)pyridin-2-yl)acetamide] | 10 to 100
2 | CC(=O)Nc1cc(Nc2cc(C)nc(C(C)(F)F)n2)c(-c2cc(CN3CCOCC3)n(C)n2)cn1 [Example 739, N-(4-((2-(1,1-difluoroethyl)-6-methylpyrimidin-4-yl)amino)-5-(1-methyl-5-(morpholinomethyl)-1H-pyrazol-3-yl)pyridin-2-yl)acetamide] | ≤ 10
3 | CC(=O)Nc1cc(Nc2cc(C)nc(C(C)(F)F)n2)c(N2CCOCC2)cn1 [Example 727, N-(4-((2-(1,1-difluoroethyl)-6-methylpyrimidin-4-yl)amino)-5-morpholinopyridin-2-yl)acetamide] | 100 to 1000

Same assay, conditions: TR-FRET probe displacement, JH2 domain of human Tyk2

Row | SMILES | IC50 [nM]
4 | CC(=O)Nc1cc(Nc2cc(C)nc(C(C)(F)F)n2)c(-c2cc(C(C)(C)C#N)ncn2)cn1 [Example 241, N-(5-(6-(2-cyanopropan-2-yl)pyrimidin-4-yl)-4-((2-(1,1-difluoroethyl)-6-methylpyrimidin-4-yl)amino)pyridin-2-yl)acetamide] | 100 to 1000

Each molecule was assayed against Tyk2 (Homo sapiens (Human), UniProt P29597) (assay: pSTAT4 Cell Assay (MSD, NK92 cells)). Conditions: not given.
Assay type: cell-based

Chain of Tyk2 (P29597 whole entry): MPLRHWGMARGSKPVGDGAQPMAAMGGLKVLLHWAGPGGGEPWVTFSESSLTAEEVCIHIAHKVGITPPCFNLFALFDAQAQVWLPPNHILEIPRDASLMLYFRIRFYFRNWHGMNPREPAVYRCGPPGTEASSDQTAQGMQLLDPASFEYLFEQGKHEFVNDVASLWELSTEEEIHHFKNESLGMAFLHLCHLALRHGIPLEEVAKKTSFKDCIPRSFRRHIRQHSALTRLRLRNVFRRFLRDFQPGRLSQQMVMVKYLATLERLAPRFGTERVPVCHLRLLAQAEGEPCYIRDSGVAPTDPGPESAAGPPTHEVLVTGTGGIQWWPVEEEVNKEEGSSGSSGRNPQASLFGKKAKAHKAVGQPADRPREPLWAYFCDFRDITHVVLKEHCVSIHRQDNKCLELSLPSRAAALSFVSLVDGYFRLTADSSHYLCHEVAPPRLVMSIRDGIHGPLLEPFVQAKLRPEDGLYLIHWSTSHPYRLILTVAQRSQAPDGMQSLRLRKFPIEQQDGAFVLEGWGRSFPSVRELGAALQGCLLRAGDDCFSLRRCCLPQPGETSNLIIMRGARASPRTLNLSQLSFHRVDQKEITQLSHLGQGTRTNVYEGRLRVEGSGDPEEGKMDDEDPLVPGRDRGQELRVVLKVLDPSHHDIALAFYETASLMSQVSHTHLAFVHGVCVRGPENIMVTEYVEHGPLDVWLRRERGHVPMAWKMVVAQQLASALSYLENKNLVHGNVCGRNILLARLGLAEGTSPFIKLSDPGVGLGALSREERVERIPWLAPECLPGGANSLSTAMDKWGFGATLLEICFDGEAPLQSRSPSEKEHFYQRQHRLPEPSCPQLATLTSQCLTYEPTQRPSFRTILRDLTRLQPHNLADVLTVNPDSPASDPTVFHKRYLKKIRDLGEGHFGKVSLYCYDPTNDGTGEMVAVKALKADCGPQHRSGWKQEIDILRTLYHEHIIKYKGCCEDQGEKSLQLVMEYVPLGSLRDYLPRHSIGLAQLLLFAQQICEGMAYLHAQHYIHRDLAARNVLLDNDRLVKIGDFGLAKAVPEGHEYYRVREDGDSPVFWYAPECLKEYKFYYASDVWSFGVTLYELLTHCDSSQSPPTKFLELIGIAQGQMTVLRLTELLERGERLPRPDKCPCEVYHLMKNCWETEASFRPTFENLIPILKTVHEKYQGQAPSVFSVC

Row | SMILES | IC50 [nM]
5 | CC(=O)Nc1cc(Nc2cc(C)nc(C(C)(F)F)n2)c(-c2ccc(P(C)(C)=O)cn2)cn1 [Example 916, N-(4′-((2-(1,1-difluoroethyl)-6-methylpyrimidin-4-yl)amino)-5-(dimethylphosphoryl)-[2,3′-bipyridin]-6′-yl)acetamide] | ≤ 10
6 | CCc1cc(Nc2cc(NC(C)=O)ncc2-c2ccc(CN3C[C@H]4C[C@@H](C3)O4)cn2)nc(C(C)(F)F)n1 [Example 912, N-(5-(((1R,5S)-6-oxa-3-azabicyclo[3.1.1]heptan-3-yl)methyl)-4′-((2-(1,1-difluoroethyl)-6-ethylpyrimidin-4-yl)amino)-[2,3′-bipyridin]-6′-yl)acetamide] | ≤ 10
7 | CCc1cc(Nc2cc(NC(C)=O)ncc2-c2ccc(F)c(CN3C[C@H]4C[C@@H]3CO4)n2)nc(C(C)(F)F)n1 [Example 908, N-(6-(((1R,4R)-2-oxa-5-azabicyclo[2.2.1]heptan-5-yl)methyl)-4′-((2-(1,1-difluoroethyl)-6-ethylpyrimidin-4-yl)amino)-5-fluoro-[2,3′-bipyridin]-6′-yl)acetamide] | ≤ 10
8 | CCc1cc(Nc2cc(NC(C)=O)ncc2-c2nccc(CN3C[C@H]4C[C@@H]3CO4)n2)nc(C(C)(F)F)n1 [Example 907, N-(5-(4-(((1R,4R)-2-oxa-5-azabicyclo[2.2.1]heptan-5-yl)methyl)pyrimidin-2-yl)-4-((2-(1,1-difluoroethyl)-6-ethylpyrimidin-4-yl)amino)pyridin-2-yl)acetamide] | 10 to 100
9 | CCc1cc(Nc2cc(NC(C)=O)ncc2-c2ccnc(CN3C[C@H]4C[C@@H](C3)O4)n2)nc(C(C)(F)F)n1 [Example 913, N-(5-(2-(((1R,5S)-6-oxa-3-azabicyclo[3.1.1]heptan-3-yl)methyl)pyrimidin-4-yl)-4-((2-(1,1-difluoroethyl)-6-ethylpyrimidin-4-yl)amino)pyridin-2-yl)acetamide] | 10 to 100
10 | CCc1cc(Nc2cc(NC(C)=O)ncc2-c2ccc(F)c(CN3CCOCC3)n2)nc(C(C)(F)F)n1 [Example 910, N-(4′-((2-(1,1-difluoroethyl)-6-ethylpyrimidin-4-yl)amino)-5-fluoro-6-(morpholinomethyl)-[2,3′-bipyridin]-6′-yl)acetamide] | ≤ 10
11 | CCc1cc(Nc2cc(NC(C)=O)ncc2-c2ncc(CN3CCCC3)cn2)nc(C(C)(F)F)n1 [Example 903, N-(4-((2-(1,1-difluoroethyl)-6-ethylpyrimidin-4-yl)amino)-5-(5-(pyrrolidin-1-ylmethyl)pyrimidin-2-yl)pyridin-2-yl)acetamide] | 100 to 1000

Same assay, conditions: MSD

Row | SMILES | IC50 [nM]
12 | CC(=O)Nc1cc(Nc2cc(C)nc(C(C)(F)F)n2)c(OCc2csnc2C)cn1 [Example 111, N-(4-((2-(1,1-difluoroethyl)-6-methylpyrimidin-4-yl)amino)-5-((3-methylisothiazol-4-yl)methoxy)pyridin-2-yl)acetamide] | 100 to 1000
13 | CC(=O)Nc1cc(Nc2ccnc(C(C)(F)F)n2)c(-c2cccc(C(C)(C)C#N)n2)cn1 [Example 653, N-(6-(2-cyanopropan-2-yl)-4′-((2-(1,1-difluoroethyl)pyrimidin-4-yl)amino)-[2,3′-bipyridin]-6′-yl)acetamide] | 10 to 100
14 | CC(=O)Nc1cc(Nc2cccc(C(F)CF)n2)c(-c2ccn(C)n2)cn1 (centres unmarked) [Example 149, N-(4-((6-(1,2-difluoroethyl)pyridin-2-yl)amino)-5-(1-methyl-1H-pyrazol-3-yl)pyridin-2-yl)acetamide] | ≤ 10
15 | CNC(=O)COc1cnc(NC(C)=O)cc1Nc1cc(C)nc(C(C)(F)F)n1 [Example 102, 2-((6-acetamido-4-((2-(1,1-difluoroethyl)-6-methylpyrimidin-4-yl)amino)pyridin-3-yl)oxy)-N-methylacetamide] | 10 to 100
16 | COc1ccnc(COc2cnc(NC(C)=O)cc2Nc2cc(C)nc(C(C)(F)F)n2)c1 [Example 128, N-(4-((2-(1,1-difluoroethyl)-6-methylpyrimidin-4-yl)amino)-5-((4-methoxypyridin-2-yl)methoxy)pyridin-2-yl)acetamide] | 10 to 100
17 | CC(=O)Nc1cc(Nc2cc(C)nc(C(C)(F)F)n2)c(OCc2cc(C)cc(C)n2)cn1 [Example 123, N-(4-((2-(1,1-difluoroethyl)-6-methylpyrimidin-4-yl)amino)-5-((4,6-dimethylpyridin-2-yl)methoxy)pyridin-2-yl)acetamide] | 10 to 100
18 | CC(=O)Nc1cc(Nc2cc(C)nc(C(C)(F)F)n2)c(-c2ccc3c(n2)CCOC3)cn1 [Example 679, N-(4-((2-(1,1-difluoroethyl)-6-methylpyrimidin-4-yl)amino)-5-(7,8-dihydrO5H-pyrano[4,3-b]pyridin-2-yl)pyridin-2-yl)acetamide] | ≤ 10
19 | CC(=O)Nc1cc(Nc2cc(C)nc(C(C)(F)F)n2)c(OCCC(F)F)cn1 [Example 104, N-(4-((2-(1,1-difluoroethyl)-6-methylpyrimidin-4-yl)amino)-5-(3,3-difluoropropoxy)pyridin-2-yl)acetamide] | 10 to 100
20 | CCC1(COc2cnc(NC(C)=O)cc2Nc2cc(C)nc(C(C)(F)F)n2)COC1 [Example 109, N-(4-((2-(1,1-difluoroethyl)-6-methylpyrimidin-4-yl)amino)-5-((3-ethyloxetan-3-yl)methoxy)pyridin-2-yl)acetamide] | 10 to 100
21 | CC(=O)Nc1cc(Nc2cc(C)nc(C(C)(F)F)n2)c(-c2cc3n(n2)C(O)CN(C)C3)cn1 (centres unmarked) [Example 224, N-(4-((2-(1,1-difluoroethyl)-6-methylpyrimidin-4-yl)amino)-5-(7-hydroxy-5-methyl-4,5,6,7-tetrahydropyrazolo[1,5-a]pyrazin-2-yl)pyridin-2-yl)acetamide] | ≤ 10
22 | CCN1CCn2nc(-c3cnc(NC(C)=O)cc3Nc3cc(C)nc(C45COC(C4)C5)n3)cc2C1 [Example 544, N-(4-((2-(2-oxabicyclo[2.1.1]hexan-4-yl)-6-methylpyrimidin-4-yl)amino)-5-(5-ethyl-4,5,6,7-tetrahydropyrazolo[1,5-a]pyrazin-2-yl)pyridin-2-yl)acetamide] | ≤ 10
23 | CC(=O)Nc1cc(Nc2cc(C)nc(C(C)(F)F)n2)c(OCc2ccc(C#N)cn2)cn1 [Example 131, N-(5-((5-cyanopyridin-2-yl)methoxy)-4-((2-(1,1-difluoroethyl)-6-methylpyrimidin-4-yl)amino)pyridin-2-yl)acetamide] | 10 to 100
24 | CC(=O)Nc1cc(Nc2cc(C)nc(C(C)(F)F)n2)c(-c2ccnc(N(C)C)n2)cn1 [Example 629, N-(4-((2-(1,1-difluoroethyl)-6-methylpyrimidin-4-yl)amino)-5-(2-(dimethylamino)pyrimidin-4-yl)pyridin-2-yl)acetamide] | ≤ 10
25 | CC(=O)Nc1cc(Nc2cc(C)nc(C(C)(F)F)n2)c(OCc2cc(C)no2)cn1 [Example 121, N-(4-((2-(1,1-difluoroethyl)-6-methylpyrimidin-4-yl)amino)-5-((3-methylisoxazol-5-yl)methoxy)pyridin-2-yl)acetamide] | 10 to 100
26 | CC(=O)Nc1cc(Nc2cc(C)nc(C(C)(F)F)n2)c(-c2cc3n(n2)CCNC3=O)cn1 [Example 223, N-(4-((2-(1,1-difluoroethyl)-6-methylpyrimidin-4-yl)amino)-5-(4-oxo-4,5,6,7-tetrahydropyrazolo[1,5-a]pyrazin-2-yl)pyridin-2-yl)acetamide] | 10 to 100
27 | COc1cc(Nc2cc(NC(C)=O)ncc2-c2ccn(C)n2)nc(C(C)(F)F)c1 [Example 209, N-(4-((6-(1,1-difluoroethyl)-4-methoxypyridin-2-yl)amino)-5-(1-methyl-1H-pyrazol-3-yl)pyridin-2-yl)acetamide] | ≤ 10
28 | CC(=O)Nc1cc(Nc2cc(C)nc(C(C)(F)F)n2)c(OCC2CCCOC2)cn1 (centres unmarked) [Example 136, N-(4-((2-(1,1-difluoroethyl)-6-methylpyrimidin-4-yl)amino)-5-((tetrahydro-2H-pyran-3-yl)methoxy)pyridin-2-yl)acetamide] | ≤ 10
29 | CC(=O)Nc1cc(Nc2cc(C)nc(C(C)(F)F)n2)c(-c2cccc(C3CCCO3)n2)cn1 (centres unmarked) [Example 639, N-(4′-((2-(1,1-difluoroethyl)-6-methylpyrimidin-4-yl)amino)-6-(tetrahydrofuran-2-yl)-[2,3′-bipyridin]-6′-yl)acetamide] | ≤ 10
